Measurements reported in US8796249B2, “TGR5 modulators and methods of use thereof” (Intercept Pharmaceuticals, Inc., priority 2008, dated 2014).
Like-named read-outs stand apart in the source and are kept apart here. Marks after values point to notes of the source that are not given here.

Assays:
LXRα = target: T1, LXRα (Homo sapiens, UniProt Q13133); assay: LXR coactivator recruitment (alphascreen); assay type: biochemical; details: ref standard T0901317
T1 sequence (Q13133 1-447): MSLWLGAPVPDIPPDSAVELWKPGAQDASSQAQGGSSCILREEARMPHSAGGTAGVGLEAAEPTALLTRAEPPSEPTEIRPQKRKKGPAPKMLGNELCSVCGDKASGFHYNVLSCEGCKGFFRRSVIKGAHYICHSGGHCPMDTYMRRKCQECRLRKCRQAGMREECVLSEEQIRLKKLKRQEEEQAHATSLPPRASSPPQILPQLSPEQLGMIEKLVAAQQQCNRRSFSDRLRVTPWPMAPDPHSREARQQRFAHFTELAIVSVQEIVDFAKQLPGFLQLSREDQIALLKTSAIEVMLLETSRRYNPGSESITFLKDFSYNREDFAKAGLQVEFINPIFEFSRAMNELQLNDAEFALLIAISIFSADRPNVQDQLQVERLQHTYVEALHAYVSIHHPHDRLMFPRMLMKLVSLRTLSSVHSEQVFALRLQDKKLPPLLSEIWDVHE
Method: (§1) The selectivity of compounds of the invention was evaluated using assay methods known in the art. Specifically, the following assay methods were used: • FXR and LXR: Coactivator Recruitment (alphascreen); • TGR5: cAMP level on human intestinal cell line (NCI-H716); • PXR: Ligands Competition assay (Binding Assay) • CAR: Coactivator Recruitment (Lanthascreen)

PXR = target: T2, PXR (Homo sapiens, UniProt O75469); assay: PXR ligands competition assay (binding assay); details: ligands competition assay (binding assay); ref standard SR-12183
T2 sequence (O75469 1-434): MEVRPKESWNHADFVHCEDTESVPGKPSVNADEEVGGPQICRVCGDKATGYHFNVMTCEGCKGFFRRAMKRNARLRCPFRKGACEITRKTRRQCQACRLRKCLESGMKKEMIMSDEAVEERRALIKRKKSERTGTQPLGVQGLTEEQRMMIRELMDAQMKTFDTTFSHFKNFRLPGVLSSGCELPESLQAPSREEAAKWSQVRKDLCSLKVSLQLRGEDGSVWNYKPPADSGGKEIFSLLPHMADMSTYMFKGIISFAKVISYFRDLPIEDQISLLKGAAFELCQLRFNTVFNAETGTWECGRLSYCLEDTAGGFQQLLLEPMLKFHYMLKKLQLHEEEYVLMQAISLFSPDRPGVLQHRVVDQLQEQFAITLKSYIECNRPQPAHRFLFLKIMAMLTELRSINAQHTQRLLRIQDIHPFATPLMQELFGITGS
Method: as §1

HepG2 cell = HepG2 cell cytotoxicity, ATP decrease; assay type: cell-based
Method: Compounds of the invention were evaluated for cytotoxicity using standard methods known in the art. Specifically, cytotoxicity was evaluated using HEPG2 cells and monitoring ATP decrease and determining the EC50 value. […]

[1] = BA as protonated species; values from literature; cited from earlier work
[2] = […] NaCl water solution; values from literature; cited from earlier work
CAR = target: T3, CAR (Homo sapiens, UniProt Q14994); assay: CAR coactivator recruitment (Lanthascreen); assay type: biochemical
T3 sequence (Q14994 1-352): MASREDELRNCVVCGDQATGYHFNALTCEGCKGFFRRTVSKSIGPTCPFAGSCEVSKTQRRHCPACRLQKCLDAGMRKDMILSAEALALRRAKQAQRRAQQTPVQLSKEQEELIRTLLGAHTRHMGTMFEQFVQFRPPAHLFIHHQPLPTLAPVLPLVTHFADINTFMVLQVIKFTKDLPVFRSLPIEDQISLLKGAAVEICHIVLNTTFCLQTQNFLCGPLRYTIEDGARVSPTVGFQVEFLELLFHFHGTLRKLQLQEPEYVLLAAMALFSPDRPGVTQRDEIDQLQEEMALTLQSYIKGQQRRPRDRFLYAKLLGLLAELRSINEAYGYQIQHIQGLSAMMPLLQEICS
Method: as §1

PPARδ = target: T4, PPARδ (Homo sapiens, UniProt Q03181); assay: NR selectivity assay PPARδ; details: unnamed ref standard 0.004 μM
T4 sequence (Q03181 1-441): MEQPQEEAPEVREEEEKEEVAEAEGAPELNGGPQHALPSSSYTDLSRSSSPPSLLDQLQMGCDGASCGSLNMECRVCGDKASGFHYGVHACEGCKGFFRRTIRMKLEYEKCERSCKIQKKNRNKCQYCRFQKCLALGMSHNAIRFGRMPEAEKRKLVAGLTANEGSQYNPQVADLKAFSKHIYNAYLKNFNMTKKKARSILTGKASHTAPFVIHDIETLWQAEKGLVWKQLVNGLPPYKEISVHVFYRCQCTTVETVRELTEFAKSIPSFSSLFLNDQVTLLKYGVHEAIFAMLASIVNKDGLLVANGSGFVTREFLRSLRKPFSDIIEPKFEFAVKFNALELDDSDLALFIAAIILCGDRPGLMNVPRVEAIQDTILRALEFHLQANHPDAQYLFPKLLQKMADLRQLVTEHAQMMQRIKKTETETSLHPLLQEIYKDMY

VDR = target: T5, VDR (Homo sapiens, UniProt P11473); assay: NR selectivity assay VDR; details: unnamed ref standard 0.005 μM
T5 sequence (P11473 1-427): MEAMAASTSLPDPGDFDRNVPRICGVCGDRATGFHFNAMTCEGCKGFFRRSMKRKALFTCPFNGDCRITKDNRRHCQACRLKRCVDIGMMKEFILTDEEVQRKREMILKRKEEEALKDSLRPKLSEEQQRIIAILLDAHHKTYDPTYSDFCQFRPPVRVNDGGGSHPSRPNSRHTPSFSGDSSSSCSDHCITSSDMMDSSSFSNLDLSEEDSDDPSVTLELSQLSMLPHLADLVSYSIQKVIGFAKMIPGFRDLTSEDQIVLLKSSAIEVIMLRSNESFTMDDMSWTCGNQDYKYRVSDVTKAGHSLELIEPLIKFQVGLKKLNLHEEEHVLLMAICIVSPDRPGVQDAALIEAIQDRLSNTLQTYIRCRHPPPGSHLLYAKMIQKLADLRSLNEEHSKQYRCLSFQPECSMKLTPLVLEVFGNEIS

[3] = Critical micellar concentration by surface tension (maximum bubble-pressure method); assay type: physicochemical; details: […] NaCl water solution
Method: The critical micellar concentration (CMC) was determined by surface tension (ST) measurements using a maximum bubble-pressure method which give surface tension values slightly affected by potential impurities like static methods are. The tensiometer was a […] Research Corp., Milwaukee, Wis.) equipped with two glass probes of 0.5 and 4.0 mm diameters connected to a source of nitrogen. The bubble frequency was 1 bubble/second in distilled water at 26° C. (P=2.7 atm) and the calibration was made with double-distilled water and methanol. The surface tension of BA sodium salts solutions in NaCl 0.15 M was measured at various concentrations inside the 0.13-50 mM range. The surface tension values were plotted against the logarithm of the bile salt concentration; the regression lines corresponding to the two parts of the curve (monomeric and micellar phases) were calculated using the method of least squares, and the intersection of the lines was taken as the CMC value. From the ST vs concentration curves the value of the surface tension at the CMC (equilibrium between monomers and multimers species) was also calculated giving information about the detergency power which is related to the size of the micelles with associate surface tension lowering capacity. The CMC was evaluated by surface tension measurements in non equilibrium conditions i.e. in conditions that impurities slightly affect the surface tension results (FIG. 1).

[4] = 1-Octanol/water partition coefficient (shake-flask); assay type: physicochemical; details: ionized species, pH 8
Method: Since the sulphate and sulphonated analogues are always ionised at all pH values the octanol/water partition coefficient was measured for all molecules in ionized form. 1-Octanol/water partition coefficient (log P) was evaluated using a conventional shake-flask procedure. […] The aqueous buffer was previously pre-saturated with 1-octanol, 5 ml of 1-octanol pre-saturated with water was then added and the samples were left to equilibrate for 2 weeks under continuous stirring at room temperature After centrifugation the two phases were carefully separated. BA concentration in the water phase was measured with HPLC-ESI ? MS/MS using C18 column (150 mm×2 mm i.d., 4 μm) and, as mobile phases, water containing 15 mM acetic acid pH 5 and acetonitrile. The flow rate was 150 μal/min and the column was maintained at 45° C. The mass spectrometry acquisition was performed in the multiple reaction monitoring mode using the ESI source in negative ionization.

bovine serum albumin [5] = target: T6, bovine serum albumin (Bos taurus, UniProt P02769); assay: Albumin binding by equilibrium dialysis; assay type: in vitro ADME; details: 100 μM BA in 5% bovine serum albumin-saline, pH 7.2
T6 construct: dissolved at a concentration of 100 μM in 5% bovine serum albumin-saline solution (pH 7.2); from tissue; host or cells: bovine serum (only from the protein's name)
Method: The extent of albumin binding was evaluated by equilibrium dialysis at a fixed BA-albumin ratio. BA was dissolved at a concentration of 100 μM in 5% bovine serum albumin-saline solution (pH 7.2) and left to stand for 24 h at 25° C. Two milliliters of this solution was dialyzed in cellulose sacs having a molecular weight cut-off of 12-14,000 against 25 ml of saline solution. The system was equilibrated by mechanical gently shaking for 72 h at 25° C. BA concentrations of the dialyzed solution (corresponding to the free unbound fraction) and of the starting solution were determined with HPLC-ESI-MS/MS in the same conditions of the previous analysis. The percent of albumin binding was calculate from the initial BA concentration and from the unbound concentration in the dialyzed fraction. All these compounds never less present an albumin binding compatible with a relatively fast hepatic uptake, similarly to natural occurring BA. Accordingly different kinetics (slower) of the liver uptake is expected.

Intestinal Bacteria = assay: In vitro metabolic stability in human stool culture; details: human stool cultures
Method: Homogenized fresh human stools (500 mg) were transferred into sterile vials to which 5 mL of sterilized chopped meat-glucose medium (Scott Lab., Fiskville, R.I.) was added. BA were then added at a final concentration of 0.05 mM. Vials were incubated at 37° C.; then, at 0, 1, 2, 4, 8 and 24 h after the addition of the BA, the reaction was stopped with 150 μL of 30% KOH. The samples were centrifuged at 3500 rpm for 10 min; from the supernatant the BA were isolated by C-18 solid-phase extraction and analyzed by TLC and HPLC-ES-MS/MS.
Thin-layer chromatography (TLC), utilizing silica gel 0.25 mm thickness plates (Merck, Darmstat, Germany), was employed as the first screening test. The solvent system used for the separation of conjugated BA was composed of propionic acid/isoamyl acetate/water/N-propanol (3:4:1:2, v/v/v/v; solvent I), and that of the unconjugated BA was acetic acid/carbon tetrachloride/isopropyl ether/isoamyl acetate/water/N-propanol/benzene (1:4:6:8:2:2, v/v/v/v/v/v; solvent II).

[6] = Previous study of oleanolic acid (OA) in animals; assay type: in vivo
Method: Therefore, OA is administered at the dose of 50 mg/kg/d in this study.

Water solubility = assay type: physicochemical; details: BA as protonated species, 0.1 M HCl, pH 1; hs = highly soluble, not evaluated
Method: Solid compound (BA) was suspended in 5 ml of 0.1 M HCl. […] The flow rate was 150 μl/min. The mass spectrometry acquisition was performed in the multiple reaction monitoring mode using the ESI source in negative ionization. Water solubility was expressed as μmol/liter.
The water solubility was measured for the insoluble protonated species of carboxylated bile acids at a pH 1.

[7] = ionized species; values from literature; cited from earlier work
bovine serum albumin [8] = target: T6, bovine serum albumin; details: values from literature; cited from earlier work
[9] = coactivator recruitment (Lanthascreen), ref standard CITCO

T6 sequence (P02769 25-607): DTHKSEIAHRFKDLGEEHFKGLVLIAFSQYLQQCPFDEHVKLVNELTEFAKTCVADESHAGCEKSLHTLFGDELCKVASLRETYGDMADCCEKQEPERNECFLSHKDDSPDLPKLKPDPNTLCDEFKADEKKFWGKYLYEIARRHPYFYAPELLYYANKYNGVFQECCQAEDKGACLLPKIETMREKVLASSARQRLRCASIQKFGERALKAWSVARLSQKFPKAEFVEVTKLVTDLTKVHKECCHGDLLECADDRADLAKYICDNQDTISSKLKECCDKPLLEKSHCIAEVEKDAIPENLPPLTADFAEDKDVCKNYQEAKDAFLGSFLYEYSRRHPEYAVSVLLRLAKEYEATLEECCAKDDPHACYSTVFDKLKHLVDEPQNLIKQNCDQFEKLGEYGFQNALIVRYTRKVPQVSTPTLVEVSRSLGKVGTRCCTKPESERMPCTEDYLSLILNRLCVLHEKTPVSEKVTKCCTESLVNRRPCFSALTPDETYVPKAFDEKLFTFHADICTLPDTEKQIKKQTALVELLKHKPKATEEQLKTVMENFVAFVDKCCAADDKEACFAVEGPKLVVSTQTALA

SMILES: C[C@H](CCC(=O)O)[C@H]1CC[C@H]2[C@@H]3[C@H](O)C[C@@H]4C[C@H](O)CC[C@]4(C)[C@H]3C[C@H](O)[C@]12C [CA]
- LXRα EC50 (LXRα): No
- PXR EC50 (PXR): No
- EC50 (HepG2 cell; read-out: HepG2 cell Cytotoxicity ATP decrease EC50): > 1000 µM
- Ws (water solubility) [1]: 273* μM
- CMC […] Na+ [2]: 11* mM

SMILES: C[C@H](CCC(=O)O)[C@H]1CC[C@H]2[C@@H]3[C@H](O)C[C@@H]4C[C@H](O)CC[C@]4(C)[C@H]3CC[C@]12C [CDCA, chenodeoxycholic acid]
- LXRα EC50 (LXRα): No
- EC50 (CAR): > 250 µM
- PPARδ EC50 (PPARδ): No
- VDR EC50 (VDR): No
- CMC […] Na+ [3]: 3.2 mM
- STCMC (surface tension at CMC) [3]: 45.5 Dyne/cm
- LogPA- (1-octanol-water partition coefficient) [4]: 2.2
- Albumin Binding (bovine serum albumin [5]): 93%
- half-life time (Intestinal Bacteria): almost one hour

SMILES: C[C@H](CCC(=O)O)[C@H]1CC[C@H]2[C@@H]3CC[C@@H]4C[C@H](O)CC[C@]4(C)[C@H]3CC[C@]12C [LCA, lithocholic acid]
- LXRα EC50 (LXRα): No
- CAR EC50 (CAR; [9]): No
- PPARδ EC50 (PPARδ): No

SMILES: CC1(C)CC[C@]2(C(=O)O)CC[C@]3(C)C(=CC[C@@H]4[C@@]5(C)CC[C@H](O)C(C)(C)[C@@H]5CC[C@]43C)[C@@H]2C1 [OA, oleanolic acid]
- food aversion [6]: did not cause food aversion
- toxicity ([6]; dose of 100 mg/kg/day): some signs of toxicity
- tolerability ([6]; lower dose than 100 mg/kg/day): well tolerated

SMILES: CN[C@@H]1C[C@H]2O[C@@](C)([C@@H]1OC)n1c3ccccc3c3c4c(c5c6ccccc6n2c5c31)C(=O)NC4 [Staurosporine, reference compound]
- EC50 (HepG2 cell; human): 15 µM

SMILES: C[C@H](CCC(=O)NCCS(=O)(=O)O)[C@H]1CC[C@H]2[C@@H]3[C@H](O)C[C@@H]4C[C@H](O)CC[C@]4(C)[C@H]3CC[C@]12C [TCDCA]
- Ws (water solubility) (Water solubility): hs
- CMC […] Na+ [2]: 3.0* mM
- LogPA- (1-octanol-water partition coefficient) [7]: 0.9*
- Albumin Binding (bovine serum albumin [8]): 70* %

SMILES: C[C@H](CCC(=O)NCCS(=O)(=O)O)[C@H]1CC[C@H]2[C@@H]3[C@@H](O)C[C@@H]4C[C@H](O)CC[C@]4(C)[C@H]3CC[C@]12C [TUDCA]
- Ws (water solubility) (Water solubility): hs
- CMC […] Na+ [2]: 2.2* mM
- LogPA- (1-octanol-water partition coefficient) [7]: 1.1*
- Albumin Binding (bovine serum albumin [8]): 67* %

SMILES: C[C@H](CCC(=O)O)[C@H]1CC[C@H]2[C@@H]3[C@@H](O)C[C@@H]4C[C@H](O)CC[C@]4(C)[C@H]3CC[C@]12C [UDCA, reference compound]
- LXRα EC50 (LXRα): No
- EC50 (CAR; [9]): > 250 µM
- PPARδ EC50 (PPARδ): No
- VDR EC50 (VDR): No
- Ws (water solubility) (Water solubility): 7.5 µM
- CMC […] Na+ [3]: 6.0 mM
- STCMC (surface tension at CMC) [3]: 50.5 Dyne/cm
- LogPA- (1-octanol-water partition coefficient) [4]: 2.2
- Albumin Binding (bovine serum albumin [5]): 94%
- EC50 (HepG2 cell): > 1000 µM
